Test results published in the supplement of paper PMC8149375.

What was measured:
Details in all cases: treatment: drug + dasatinib (fixed dose, not stated); 5 days
ACHN [1] = test: minimum viability across doses, drug + dasatinib, relative to DMSO (fraction); higher = less growth inhibition
Experimental: (§1)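 Primary HTS combination arm: 8 RCC cell lines treated with 8 doses (up to 10 uM) of each library drug plus a fixed dose of dasatinib (dose not stated) for 5 days; viability read by CellTiter-Glo and normalised to DMSO. GI50 was fitted with XLfit, AUC is the area under the dose-response curve, and minimum viability is the lowest fraction of DMSO viability across doses.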

UO-31 [2] = test: as above
Experimental: as §1

769-P [3] = test: as above
Experimental: as §1

786-O [4] = test: as above
Experimental: as §1

CAKI-1 [5] = test: as above
Experimental: as §1

SN12C [6] = test: as above
Experimental: as §1

TK-10 [7] = test: as above
Experimental: as §1

A498 [8] = test: as above
Experimental: as §1

ACHN [9] = test: AUC of dose-response viability curve, drug + dasatinib, normalised to DMSO (arbitrary (AUC of normalised viability)); higher = less growth inhibition
Experimental: as §1

UO-31 [10] = test: as above
Experimental: as §1

769-P [11] = test: as above
Experimental: as §1

786-O [12] = test: as above
Experimental: as §1

CAKI-1 [13] = test: as above
Experimental: as §1

SN12C [14] = test: as above
Experimental: as §1

TK-10 [15] = test: as above
Experimental: as §1

A498 [16] = test: as above
Experimental: as §1

ACHN [17] = test: GI50 of drug in presence of dasatinib; higher = less potent
Experimental: as §1

UO-31 [18] = test: as above
Experimental: as §1

769-P [19] = test: as above
Experimental: as §1

786-O [20] = test: as above
Experimental: as §1

CAKI-1 [21] = test: as above
Experimental: as §1

SN12C [22] = test: as above
Experimental: as §1

TK-10 [23] = test: as above
Experimental: as §1

A498 [24] = test: as above
Experimental: as §1

Compound	minimum viability across doses (ACHN [1])	minimum viability across doses (UO-31 [2])	minimum viability across doses (769-P [3])	minimum viability across doses (786-O [4])	minimum viability across doses (CAKI-1 [5])	minimum viability across doses (SN12C [6])	minimum viability across doses (TK-10 [7])	minimum viability across doses (A498 [8])	AUC of dose-response viability curve (ACHN [9])	AUC of dose-response viability curve (UO-31 [10])	AUC of dose-response viability curve (769-P [11])	AUC of dose-response viability curve (786-O [12])	AUC of dose-response viability curve (CAKI-1 [13])	AUC of dose-response viability curve (SN12C [14])	AUC of dose-response viability curve (TK-10 [15])	AUC of dose-response viability curve (A498 [16])	GI50 of drug (ACHN [17])	GI50 of drug (UO-31 [18])	GI50 of drug (769-P [19])	GI50 of drug (786-O [20])	GI50 of drug (CAKI-1 [21])	GI50 of drug (SN12C [22])	GI50 of drug (TK-10 [23])	GI50 of drug (A498 [24])
CC(=O)Nc1ccc(NC(=S)NC(=O)c2ccc(C(C)(C)C)cc2)cc1 [Tenovin-1] + Cc1nc(Nc2ncc(C(=O)Nc3c(C)cccc3Cl)s2)cc(N2CCN(CCO)CC2)n1 [dasatinib]	0.385	0.0071	0.125	0.00416	0.498	0.656	0.342	0.0745	1.95	3	1.91	1.53	2.19	2.47	2.2	2.71	1200 nM	825 nM	554 nM	264 nM	> 10000 nM	> 10000 nM	2840 nM	854 nM
O=C1CCC(N2C(=O)c3ccccc3C2=O)C(=O)N1 (stereo unspecified) [Thalidomide] + Cc1nc(Nc2ncc(C(=O)Nc3c(C)cccc3Cl)s2)cc(N2CCN(CCO)CC2)n1 [dasatinib]	0.555	1.03	0.666	0.556	0.638	0.679	0.665	0.971	2.17	4.13	2.54	2.49	2.35	2.52	2.48	3.94	> 10000 nM	> 10000 nM	> 10000 nM	> 10000 nM	> 10000 nM	> 10000 nM	> 10000 nM	> 10000 nM
O=C(NCc1ccccc1)c1csc(Nc2ccncn2)n1 [Thiazovivin] + Cc1nc(Nc2ncc(C(=O)Nc3c(C)cccc3Cl)s2)cc(N2CCN(CCO)CC2)n1 [dasatinib]	0.225	0.0123	0.318	0.327	0.175	0.694	0.494	0.777	2.12	2.79	2.27	2.04	2.04	2.56	2.73	3.03	2070 nM	1650 nM	2830 nM	2390 nM	1870 nM	> 10000 nM	> 10000 nM	> 10000 nM
COc1ccc2cc(-c3[nH]c(-c4ccc(S(C)=O)cc4)nc3-c3ccncc3)ccc2c1 (stereo unspecified) [Tie2 kinase inhibitor] + Cc1nc(Nc2ncc(C(=O)Nc3c(C)cccc3Cl)s2)cc(N2CCN(CCO)CC2)n1 [dasatinib]	0.521	1.07	0.595	0.468	0.657	0.64	0.68	0.97	2.03	4.56	2.36	2.51	2.41	2.4	2.69	3.88	> 10000 nM	> 10000 nM	> 10000 nM	8920 nM	> 10000 nM	> 10000 nM	> 10000 nM	> 10000 nM
COc1cc2nccc(Oc3ccc(NC(=O)Nc4cc(C)on4)c(Cl)c3)c2cc1OC [Tivozanib (AV-951)] + Cc1nc(Nc2ncc(C(=O)Nc3c(C)cccc3Cl)s2)cc(N2CCN(CCO)CC2)n1 [dasatinib]	0.0982	0.0455	0.146	0.569	0.0242	0.134	0.493	0.457	1.95	3.32	2.1	2.68	1.75	2.12	2.55	3.13	1630 nM	4150 nM	1570 nM	> 10000 nM	743 nM	1950 nM	9670 nM	9890 nM
CC(C)(C)c1cc(/C=C(\C#N)C(N)=S)cc(C(C)(C)C)c1O [Tyrphostin AG 879 (AG 879)] + Cc1nc(Nc2ncc(C(=O)Nc3c(C)cccc3Cl)s2)cc(N2CCN(CCO)CC2)n1 [dasatinib]	0.556	1.26	0.689	0.458	0.45	0.706	0.653	1	2.11	5.04	2.55	1.83	2.38	2.56	2.39	3.69	> 10000 nM	> 10000 nM	> 10000 nM	< 3 nM	7590 nM	> 10000 nM	> 10000 nM	> 10000 nM
Cc1cc(Nc2cc(N3CCN(C)CC3)nc(Sc3ccc(NC(=O)C4CC4)cc3)n2)n[nH]1 [VX-680 (MK-0457, Tozasertib)] + Cc1nc(Nc2ncc(C(=O)Nc3c(C)cccc3Cl)s2)cc(N2CCN(CCO)CC2)n1 [dasatinib]	0.139	0.0311	0.269	0.308	0.077	0.0667	0.536	0.183	1.68	2.75	1.79	1.88	1.6	1.97	2.73	2.4	145 nM	3330 nM	325 nM	152 nM	95.1 nM	511 nM	> 10000 nM	1110 nM
COc1cc2c(Nc3ccc(Br)cc3F)ncnc2cc1OCC1CCN(C)CC1 [Vandetanib (Zactima)] + Cc1nc(Nc2ncc(C(=O)Nc3c(C)cccc3Cl)s2)cc(N2CCN(CCO)CC2)n1 [dasatinib]	0.0849	0.0159	0.157	0.332	0.0882	0.456	0.161	0.366	1.82	2.64	2.01	2.55	2.07	2.48	2.46	3.11	305 nM	1880 nM	1130 nM	5420 nM	2210 nM	> 10000 nM	1490 nM	7710 nM
CCCS(=O)(=O)Nc1ccc(F)c(C(=O)c2c[nH]c3ncc(-c4ccc(Cl)cc4)cc23)c1F [Vemurafenib (PLX4032)] + Cc1nc(Nc2ncc(C(=O)Nc3c(C)cccc3Cl)s2)cc(N2CCN(CCO)CC2)n1 [dasatinib]	0.403	0.853	0.618	0.326	0.57	0.719	0.6	0.838	2.05	3.4	2	2.11	2.39	2.62	2.4	3.37	5760 nM	> 10000 nM	> 10000 nM	3840 nM	> 10000 nM	> 10000 nM	9220 nM	> 10000 nM
c1cncc(CN2CCC(n3ncc4c(N5CCOCC5)nc(-c5ccc6[nH]ccc6c5)nc43)CC2)c1 [WAY-600] + Cc1nc(Nc2ncc(C(=O)Nc3c(C)cccc3Cl)s2)cc(N2CCN(CCO)CC2)n1 [dasatinib]	0.0438	0.0101	0.0156	0.00323	0.0191	0.119	0.045	0.0551	1.39	2.62	1.93	1.56	1.63	1.85	1.83	3.1	91.2 nM	1100 nM	688 nM	524 nM	306 nM	523 nM	433 nM	4490 nM
COc1cc2ncnc(Nc3ccc(O)c(Br)c3)c2cc1OC [WHI-P154] + Cc1nc(Nc2ncc(C(=O)Nc3c(C)cccc3Cl)s2)cc(N2CCN(CCO)CC2)n1 [dasatinib]	0.218	1.22	0.348	0.547	0.211	0.603	0.422	0.937	1.42	5.45	2.22	2.26	2.26	2.51	2.16	3.93	33.7 nM	> 10000 nM	2580 nM	> 10000 nM	2980 nM	> 10000 nM	1920 nM	> 10000 nM
C[C@H](NC(=O)/C(C#N)=C/c1cccc(Br)n1)c1ccccc1 [WP1066] + Cc1nc(Nc2ncc(C(=O)Nc3c(C)cccc3Cl)s2)cc(N2CCN(CCO)CC2)n1 [dasatinib]	0.0689	0.00793	0.0555	0.0254	0.285	0.385	0.713	0.638	1.48	4.08	2.49	2.35	2.28	2.36	2.77	3.03	8.56 nM	7910 nM	3930 nM	4310 nM	3970 nM	> 10000 nM	> 10000 nM	> 10000 nM
CCC[C@H](NC(=O)/C(C#N)=C/c1cccc(Br)n1)c1ccccc1 [WP1130] + Cc1nc(Nc2ncc(C(=O)Nc3c(C)cccc3Cl)s2)cc(N2CCN(CCO)CC2)n1 [dasatinib]	0.00233	0.0123	0.0169	0.00681	0.0305	0.00838	0.191	0.02	1.95	3.53	2.25	1.79	2.12	2.37	2.43	2.69	4370 nM	4240 nM	3100 nM	279 nM	2190 nM	3930 nM	4750 nM	4100 nM
COC(=O)Nc1ccc(-c2nc(N3CCOCC3)c3cnn(C4CCN(C(=O)OC)CC4)c3n2)cc1 [WYE-354] + Cc1nc(Nc2ncc(C(=O)Nc3c(C)cccc3Cl)s2)cc(N2CCN(CCO)CC2)n1 [dasatinib]	0.0892	0.019	0.122	0.307	0.0632	0.215	0.208	0.262	1.33	2.63	1.84	1.76	1.71	2.08	1.83	2.63	74.7 nM	894 nM	457 nM	381 nM	345 nM	800 nM	329 nM	1980 nM
